Data published in patent US20250281507A1, “METHODS OF TREATING NEPHROTIC SYNDROME” (The Research Institute at Nationwide Children's Hospital, priority 2021, published 2025).
Where “and” joins values, the source holds several entries; their conditions need not be identical. Equal entries are not always repeated.

Test system: children with NS
Assay: Proteinuria (urine protein to creatinine ratio, UPCR) before and after addition of pioglitazone
Type: in vivo, human
Excerpt: In the following clinical studies, the efficacy and safety of adding pioglitazone to reduce proteinuria in children with NS was examined. All children with NS identified worldwide to have been treated with pioglitazone were included, with no patients excluded. Each patient had pioglitazone added to their other NS medications at the discretion of their treating pediatric nephrologist. All patient records were reviewed in a de-identified manner, with prior ethics committee approval at each institution. Data were analyzed based on defined time periods before and after the addition of pioglitazone. Patients were defined as having responded to pioglitazone (i.e., Responders) if their urine protein to creatinine ratio (UPCR, mg/mg) decreased from the period 0-1 month pre-pioglitazone to the period 0-1 month post-pioglitazone. Glomerular filtration rate estimation (eGFR) in patients <18 years was calculated using the revised Schwartz equation. In patients >18 years, eGFR was calculated as the mean of the revised Schwartz and CKD-EPI creatinine equations. Quantitative data, such as patient age, duration of NS, pioglitazone dosage, and outcomes of UPCR, TIS, and serum albumin, were summarized as means (standard errors of mean), while categorical data such as renal survival status were summarized as frequency (percent). Due to a small sample size, Responders and Non-responders were compared using Wilcoxon Rank Sum tests on quantitative variables and Fisher's exact tests on categorical variables. For both Responders and Non-responders, pre-pioglitazone to post-pioglitazone initiation changes in UPCR, TIS, and serum albumin levels were analyzed using Wilcoxon Signed Rank tests. Numbers of hospitalizations pre-pioglitazone and post-pioglitazone initiation were analyzed and compared using Poisson distributions. Statistical significance was assessed at both the 0.05 and 0.10 levels. All analyses were conducted using SPSS software ver. 26 (IBM, Armonk, NY, USA).

[1] = Patient 1 (Responder), pre-PIO 8.5
[2] = Patient 1 (Responder), vs 0-1 mo pre-PIO
[3] = Patient 2 (Responder), pre-PIO 6
[4] = Patient 2 (Responder), vs 0-1 mo pre-PIO
[5] = Patient 3 (Responder), pre-PIO 11.2
[6] = Patient 3 (Responder), vs 0-1 mo pre-PIO
[7] = Patient 5 (Non-responder), pre-PIO 0.46
[8] = Patient 5 (Non-responder), vs 0-1 mo pre-PIO
[9] = Patient 6 (Responder), pre-PIO 2.16
[10] = Patient 6 (Responder), vs 0-1 mo pre-PIO
[11] = Patient 7 (Non-responder), pre-PIO 7.5
[12] = Patient 7 (Non-responder), vs 0-1 mo pre-PIO
[13] = Patient 8 (Responder), pre-PIO 4.66
[14] = Patient 8 (Responder), vs 0-1 mo pre-PIO
[15] = mean of 5 Responders, pre-PIO 6.50
[16] = mean of 5 Responders, vs 0-1 mo pre-PIO

CCc1ccc(CCOc2ccc(CC3SC(=O)NC3=O)cc2)nc1 (centres unmarked) [pioglitazone]
UPCR in Responders, range (5-7 months post-pioglitazone): 0.06 to 0.5 mg/mg
Patients with prompt and significant reductions in proteinuria (Responders) (Five of 8 pioglitazone-treated patients, UPCR decrease 0-1 mo pre- to 0-1 mo post-pioglitazone): 63%
Post-PIO UPCR (0-1 mo; mg/mg) [1]: 4 mg/mg
Post-PIO UPCR (5-7 mo; mg/mg) [1]: 0.2 mg/mg
% UPCR Reduction (0-1 mo) [2]: 53% and 52.9%
% UPCR Reduction (5-7 mo) [2]: 98% and 97.6%
Post-PIO UPCR (0-1 mo; mg/mg) [3]: 2 mg/mg
Post-PIO UPCR (5-7 mo; mg/mg) [3]: 0.12 mg/mg
% UPCR Reduction (0-1 mo) [4]: 67% and 66.7%
% UPCR Reduction (5-7 mo) [4]: 98%
Post-PIO UPCR (0-1 mo; mg/mg) [5]: 6.4 mg/mg
Post-PIO UPCR (5-7 mo; mg/mg) [5]: 0.5 mg/mg
% UPCR Reduction (0-1 mo) [6]: 43% and 42.9%
% UPCR Reduction (5-7 mo) [6]: 96% and 95% and 95.5%
UPCR increase (Patient 4 (Non-responder), over the next 1 month): 133%
Post-PIO UPCR (0-1 mo; mg/mg) (Patient 4 (Non-responder), pre-PIO 28.8, urine obtained soon after IV albumin infusion): 67.0 mg/mg and 67 mg/mg
% UPCR Reduction (0-1 mo) (Patient 4 (Non-responder), vs 0-1 mo pre-PIO): −133%
UPCR increase (Patient 5 (Non-responder), 1-month post-PIO): 139%
increase in proteinuria (UPCR) (Patient 5 (Non-responder), 5-7 months post-pioglitazone): 24%
Post-PIO UPCR (0-1 mo; mg/mg) [7]: 1.1 mg/mg
Post-PIO UPCR (5-7 mo; mg/mg) [7]: 0.57 mg/mg
% UPCR Reduction (0-1 mo) [8]: −139%
% UPCR Reduction (5-7 mo) [8]: −23.9%
Post-PIO UPCR (0-1 mo; mg/mg) [9]: 1.09 mg/mg
Post-PIO UPCR (5-7 mo; mg/mg) [9]: 0.11 mg/mg
% UPCR Reduction (0-1 mo) [10]: 50% and 49.5%
% UPCR Reduction (5-7 mo) [10]: 95% and 94.9%
increase in proteinuria (UPCR) (Patient 7 (Non-responder), 5-7 months post-pioglitazone): 77%
UPCR increase (Patient 7 (Non-responder), over the next 1 month): 13%
Post-PIO UPCR (0-1 mo; mg/mg) [11]: 8.5 mg/mg
Post-PIO UPCR (5-7 mo; mg/mg) [11]: 13.3 mg/mg
% UPCR Reduction (0-1 mo) [12]: −13.3%
% UPCR Reduction (5-7 mo) [12]: 77.3%
Post-PIO UPCR (0-1 mo; mg/mg) [13]: 0.08 mg/mg
Post-PIO UPCR (5-7 mo; mg/mg) [13]: 0.06 mg/mg
% UPCR Reduction (0-1 mo) [14]: 98% and 98.3%
% UPCR Reduction (5-7 mo) [14]: 99% and 98.7%
Post-PIO UPCR (0-1 mo; mg/mg), Mean (SEM) [15]: 2.7 mg/mg and 2.71 mg/mg
Post-PIO UPCR (5-7 mo; mg/mg), Mean (SEM) [15]: 0.2 mg/mg and 0.20 mg/mg
% UPCR Reduction (0-1 mo), Mean (SEM) [16]: 62% and 62.1%
% UPCR Reduction (5-7 mo), Mean (SEM) [16]: 97%
Post-PIO UPCR (5-7 mo; mg/mg), Mean (SEM) (mean of Non-responders (Patient 4 ESRD)): 6.94 mg/mg
% UPCR Reduction (5-7 mo), Mean (SEM) (mean of Non-responders (Patient 4 NA)): −50.6%
Post-PIO UPCR (0-1 mo; mg/mg), Mean (SEM) (mean of Non-responders, pre-PIO 12.3): 25.5 mg/mg
% UPCR Reduction (0-1 mo), Mean (SEM) (mean of Non-responders, vs 0-1 mo pre-PIO): −95.0%
UPCR reduction in Responders, range (within the first month of pioglitazone treatment): 43-98%
UPCR in Responders, range (within the first month of pioglitazone treatment, pre range 2.2-11.2): 0.1 to 6.4 mg/mg
